Results from ChEMBL document CHEMBL1201862, “PubChem BioAssay data set” (2004).
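Interpolation was linear, between the two tested concentrations surrounding the appropriate level; five concentrations were tested over 48 hours in 96-well plates. At the GI50, growth is halved.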 The source made the active and inactive calls. No stated cut-off is given here; in the data, active = GI50 up to about 1.1 µM and inactive = higher.

What was measured:
Experiment in all cases: DTP human tumour cell line panel, 48 h
[1] = system: CAKI-1
[2] = system: CCRF-CEM
[3] = system: EKVX
[4] = system: HCC 2998
[5] = system: HL-60
[6] = system: Hs-578T
[7] = system: LOX IMVI
[8] = system: MDA-N
[9] = system: MOLT-4
[10] = system: Malme-3M
[11] = system: NCI-H226
[12] = system: NCI-H522
[13] = system: NCI/ADR-RES
[14] = system: RPMI-8226
[15] = system: SN12C
[16] = system: SNB-75
[17] = system: SR
[18] = system: T47D
[19] = system: TK-10
[20] = system: UO-31

Row | Compound | GI50 [1] | GI50 [2] | GI50 [3] | GI50 [4] | GI50 [5] | GI50 [6] | GI50 [7] | GI50 [8] | GI50 [9] | GI50 [10] | GI50 [11] | GI50 [12] | GI50 [13] | GI50 [14] | GI50 [15] | GI50 [16] | GI50 [17] | GI50 [18] | GI50 [19] | GI50 [20]
1 | Clc1ccc2oc(CCC3CCCCC3)nc2c1 | 24.7 µM (inactive) | 18.5 µM (inactive) | 26.7 µM (inactive) | 22.9 µM (inactive) | 16.3 µM (inactive) | 91.2 µM (inactive) | 4.7 µM (inactive) | 33.3 µM (inactive) | 16.4 µM (inactive) | 39.5 µM (inactive) | 19.2 µM (inactive) | 21.9 µM (inactive) | 30.3 µM (inactive) | 37.3 µM (inactive) | 21.9 µM (inactive) | 23 µM (inactive) | 19.7 µM (inactive) | 20.5 µM (inactive) | 26.4 µM (inactive) | 17.9 µM (inactive)
2 | C[C@@H]1C[C@H]2CC[C@H](O2)[C@H](C)C(=O)O[C@@H](C)C[C@@H]2CC[C@@H](O2)[C@@H](C)C(=O)O[C@H](C)C[C@H]2CC[C@H](O2)[C@H](C)C(=O)O[C@@H](C)C[C@@H]2CC[C@@H](O2)[C@@H](C)C(=O)O1 | 0.826 µM (active) | 0.292 µM (active) | 0.283 µM (active) | 1.1 µM (active) | 0.157 µM (active) | 0.489 µM (active) | 0.305 µM (active) | 0.404 µM (active) | 0.36 µM (active) | 0.199 µM (active) | 0.436 µM (active) | 0.211 µM (active) | 2.17 µM (inactive) | 0.0769 µM (active) | 0.366 µM (active) | 0.338 µM (active) | 0.495 µM (active) | 0.189 µM (active) | 0.425 µM (active) | 0.374 µM (active)
3 | C=CC(=O)NCCC(=O)OCn1cc(F)c(=O)[nH]c1=O | 3.2 µM (inactive) | 16.7 µM (inactive) | 10.4 µM (inactive) | 0.369 µM (active) | 0.425 µM (active) | > 100 µM (inactive) | 4.34 µM (inactive) | 1.56 µM (inactive) | 6.01 µM (inactive) | 4.59 µM (inactive) | 13.3 µM (inactive) | 9.4 µM (inactive) | 27 µM (inactive) | 1.75 µM (inactive) | 0.838 µM (active) | 19.4 µM (inactive) | 2.12 µM (inactive) | 83.2 µM (inactive) | 0.838 µM (active) | 2.33 µM (inactive)
4 | CO/C(=N\N=C\c1cccc(C(F)(F)F)c1)c1ccncc1 | 1.8 µM (inactive) | 4.62 µM (inactive) | 13.8 µM (inactive) | 6.41 µM (inactive) | 2.83 µM (inactive) | 5.93 µM (inactive) | 7.76 µM (inactive) | 2.13 µM (inactive) | 5.21 µM (inactive) | 4.6 µM (inactive) | 3.56 µM (inactive) | 5.45 µM (inactive) | 1.82 µM (inactive) | 2.37 µM (inactive) | 3.67 µM (inactive) | 15.5 µM (inactive) | 5.75 µM (inactive) | 37.2 µM (inactive) | 17.5 µM (inactive) | 4.47 µM (inactive)
5 | CC(=O)Oc1cccc2c1C(=O)c1c(OC(C)=O)cc(C)cc1C2=O | > 100 µM (inactive) | 18.8 µM (inactive) | 24.4 µM (inactive) | 61.7 µM (inactive) | 23.6 µM (inactive) | 46.6 µM (inactive) | 69 µM (inactive) | 58.5 µM (inactive) | 26.6 µM (inactive) | 17.1 µM (inactive) | > 100 µM (inactive) | 12.2 µM (inactive) | 21.1 µM (inactive) | 12.6 µM (inactive) | 51.2 µM (inactive) | 36 µM (inactive) | 33 µM (inactive) | 32.4 µM (inactive) | > 100 µM (inactive) | –
6 | CC[C@@]1(O)C(=O)OCc2c1cc1n(c2=O)Cc2c-1nc1ccccc1c2/C=N\NC(=O)C(N)Cc1c[nH]c2ccccc12 (stereo partly specified) | 0.0578 µM (active) | < 0.01 µM (active) | 5.78 µM (inactive) | 2.3 µM (inactive) | 0.0638 µM (active) | 27.9 µM (inactive) | 0.0675 µM (active) | 2.02 µM (inactive) | < 0.01 µM (active) | 1.76 µM (inactive) | 1.11 µM (active) | 0.643 µM (active) | 0.809 µM (active) | 0.78 µM (active) | 0.108 µM (active) | 0.0745 µM (active) | < 0.01 µM (active) | 0.0743 µM (active) | 20 µM (inactive) | 0.173 µM (active)
7 | O=C(/C=C/c1ccccc1O)CC(=O)/C=C/c1ccccc1O | 17.9 µM (inactive) | 3.1 µM (inactive) | 13.3 µM (inactive) | 10.5 µM (inactive) | 3.24 µM (inactive) | 8.17 µM (inactive) | 1.32 µM (inactive) | 2.97 µM (inactive) | 3.78 µM (inactive) | 11.7 µM (inactive) | > 10 µM (inactive) | 3.72 µM (inactive) | 5.01 µM (inactive) | 2.93 µM (inactive) | 5.38 µM (inactive) | > 46.2 µM (inactive) | 2.67 µM (inactive) | 5.45 µM (inactive) | 23.7 µM (inactive) | 4.73 µM (inactive)
8 | CC[C@@]1(O)C(=O)OCc2c1cc1n(c2=O)Cc2c-1nc1ccccc1c2CC[Si](C)(C)C [COSITECAN] | < 0.01 µM (active) | – | 0.0671 µM (active) | < 0.01 µM (active) | < 0.01 µM (active) | 7.73 µM (inactive) | < 0.01 µM (active) | < 0.01 µM (active) | < 0.01 µM (active) | < 0.01 µM (active) | < 0.01 µM (active) | < 0.01 µM (active) | < 0.01 µM (active) | < 0.01 µM (active) | < 0.01 µM (active) | < 0.01 µM (active) | < 0.01 µM (active) | < 0.01 µM (active) | 0.131 µM (active) | < 0.01 µM (active)
9 | C[C@@H]1Nc2cc(NC(=O)OCCF)nc(N)c2N=C1c1ccccc1 | > 100 µM (inactive) | < 0.0001 µM (active) | < 0.0001 µM (active) | < 0.01 µM (active) | < 0.0001 µM (active) | < 0.0001 µM (active) | < 0.0001 µM (active) | < 0.0001 µM (active) | < 0.0001 µM (active) | 0.111 µM (active) | 42.2 µM (inactive) | < 0.0001 µM (active) | < 0.0001 µM (active) | < 0.0001 µM (active) | < 0.0001 µM (active) | 32.7 µM (inactive) | < 0.0001 µM (active) | 61.9 µM (inactive) | – | 21.5 µM (inactive)
10 | O=C(/C=C/c1ccc2c(c1)OCO2)CC(=O)/C=C/c1ccc2c(c1)OCO2 | > 100 µM (inactive) | 35.6 µM (inactive) | 64 µM (inactive) | > 100 µM (inactive) | 41.7 µM (inactive) | 57.9 µM (inactive) | 12.1 µM (inactive) | 40 µM (inactive) | > 100 µM (inactive) | > 100 µM (inactive) | > 100 µM (inactive) | 45 µM (inactive) | 69.3 µM (inactive) | > 100 µM (inactive) | > 100 µM (inactive) | > 100 µM (inactive) | 39.1 µM (inactive) | > 100 µM (inactive) | > 100 µM (inactive) | > 100 µM (inactive)
11 | CCOP(=O)(O)C(Nc1ccc(/N=N/c2ccccc2)cc1)c1ccc(C(Nc2ccc(/N=N/c3ccccc3)cc2)P(=O)(O)OCC)cc1 (stereo unspecified) | 44.6 µM (inactive) | 22.1 µM (inactive) | 18.7 µM (inactive) | 17.9 µM (inactive) | 17.1 µM (inactive) | 18.6 µM (inactive) | 15.6 µM (inactive) | 19.4 µM (inactive) | 20.3 µM (inactive) | 17.9 µM (inactive) | 40.3 µM (inactive) | 18.6 µM (inactive) | 27.4 µM (inactive) | 23.7 µM (inactive) | 19.2 µM (inactive) | 14.7 µM (inactive) | 19.8 µM (inactive) | 15.3 µM (inactive) | 36.2 µM (inactive) | 67.1 µM (inactive)
12 | CC(NC(=O)C(NC(=O)C(NC(=O)C(F)(F)F)C(C)C)C(C)C)C(=O)Oc1c(Cl)c(Cl)c(Cl)c(Cl)c1Cl (stereo unspecified) | > 100 µM (inactive) | > 100 µM (inactive) | > 100 µM (inactive) | > 100 µM (inactive) | > 100 µM (inactive) | > 100 µM (inactive) | > 100 µM (inactive) | > 100 µM (inactive) | > 100 µM (inactive) | > 100 µM (inactive) | 94.6 µM (inactive) | 85.5 µM (inactive) | > 100 µM (inactive) | > 100 µM (inactive) | > 100 µM (inactive) | > 100 µM (inactive) | > 100 µM (inactive) | 83.4 µM (inactive) | > 100 µM (inactive) | 86.7 µM (inactive)
13 | CCOC(=O)c1c(N2CCCC2)ncn(Cc2ccccc2)c1=S | 30.6 µM (inactive) | > 100 µM (inactive) | > 100 µM (inactive) | > 100 µM (inactive) | > 100 µM (inactive) | > 100 µM (inactive) | > 100 µM (inactive) | > 100 µM (inactive) | 92.3 µM (inactive) | > 100 µM (inactive) | > 100 µM (inactive) | > 100 µM (inactive) | > 100 µM (inactive) | > 100 µM (inactive) | > 100 µM (inactive) | 47.6 µM (inactive) | > 100 µM (inactive) | 93.8 µM (inactive) | > 100 µM (inactive) | 55.8 µM (inactive)
14 | N/N=C(\N)SCc1ccc(N=C=S)cc1 | > 100 µM (inactive) | > 100 µM (inactive) | > 100 µM (inactive) | > 100 µM (inactive) | > 100 µM (inactive) | > 100 µM (inactive) | > 100 µM (inactive) | > 100 µM (inactive) | > 100 µM (inactive) | > 100 µM (inactive) | – | 5.9 µM (inactive) | > 100 µM (inactive) | > 100 µM (inactive) | > 100 µM (inactive) | > 100 µM (inactive) | > 100 µM (inactive) | > 100 µM (inactive) | > 100 µM (inactive) | > 100 µM (inactive)
